The values that follow come from ChEMBL document CHEMBL3872238, “Selectivity switch between FAK and Pyk2: Macrocyclization of FAK inhibitors improves Pyk2 potency” (Bioorg Med Chem Lett, 2016).

A short description of data set [1]: Kinetic solubility of compound at pH 7. Type of data set: physicochemical. The following applies: buffer, read-out: Kinetic_solubility.
Data set [2] is described as follows: Half life in mouse liver microsomes. It counts as ADME.
The nature of data set [3]: Half life in dog liver microsomes. Type of data set: ADME, Canis lupus familiaris.
Data set [4] can be described thus: Half life in human liver microsomes. It counts as ADME.
Data set [5] is described as follows: Permeability from apical side to basolateral side in human Caco2 cells. Type of data set: ADME, cell-based. The following applies: Caco-2, read-out: permeability.
Data set [6] is described as follows: Permeability from basolateral side to apical side in human Caco2 cells. Type of data set: ADME, cell-based. The following applies: Caco-2, read-out: permeability.

≈ marks a conversion by molar mass, not a printed value. Bounds are passed on as bounds.

With `CS(=O)(=O)N1CCCCC(=O)N2CCc3cc(ccc32)Nc2ncc(C(F)(F)F)c(n2)NCc2ccccc21`, the solubility kinetic in data set [1] was below 1.6 µM. The half-life in data set [2], in data set [3] and in data set [4] was below 1 h in each case.
Consider `CS(=O)(=O)N1CCCCC(=O)N2CCc3cc(ccc32)Nc2ncc(C(F)(F)F)c(n2)NCc2cccnc21`, for which the Papp A→B in data set [5] is 30 ×10⁻⁶ cm/s. In addition, in data set [6], the Papp B→A is 32 ×10⁻⁶ cm/s. The half-life in data set [2], in data set [3] and in data set [4] was below 1 h each time.
Consider `CCS(=O)(=O)N1CCCCC(=O)N2CCc3cc(ccc32)Nc2ncc(C(F)(F)F)c(n2)NCc2ccccc21`, for which the solubility kinetic in data set [1] is below 1.6 µM. Besides, the half-life in data set [2], in data set [3] and in data set [4] was below 1 h in each case.
In the case of `CS(=O)(=O)N1C/C=C/c2cccc(c2)Nc2ncc(C(F)(F)F)c(n2)NCc2cccnc21`, in data set [1], the solubility kinetic was found to be 0.3 µM (≈ 0.143 µg/mL).
Take `CN1Cc2cccnc2N(S(C)(=O)=O)C/C=C/c2cc(ccc2N2CCOCC2)Nc2ncc(C(F)(F)F)c1n2`: in data set [1], the solubility kinetic is 1 µM (≈ 0.576 µg/mL).
In the case of `CN(c1ncccc1CNc1nc(Nc2ccc3c(c2)CC(=O)N3)ncc1C(F)(F)F)S(C)(=O)=O` [PF-00562271], in data set [5], the Papp A→B stood at 11 ×10⁻⁶ cm/s. In data set [6], the Papp B→A was found to be 29 ×10⁻⁶ cm/s.
In the case of `CN1Cc2ccccc2N(S(C)(=O)=O)CCCCC(=O)N2CCc3cc(ccc32)Nc2ncc(C(F)(F)F)c1n2`, in data set [1], the solubility kinetic is below 1.6 µM. Moreover, the half-life in data set [2], in data set [3] and in data set [4] was below 1 h throughout.
Take `CN1Cc2ccncc2N(S(C)(=O)=O)C/C=C/c2cc(ccc2N2CCOCC2)Nc2ncc(C(F)(F)F)c1n2`: in data set [1], the solubility kinetic is 3 µM (≈ 1.73 µg/mL). This molecule registered a half-life in data set [4] of 4.38 h.
